The text below walks through data of ChEMBL document CHEMBL1201862, “PubChem BioAssay data set” (2004).

Among the test systems are CAKI-1; CCRF-CEM; HL-60; HOP-62; HOP-92; HT-29; MDA-N; Malme-3M; NCI-H460; OVCAR-3; OVCAR-5; OVCAR-8; SF-268; SF-295; SK-MEL-5; SN12C; SR; TK-10; U-251; M14.
Holding throughout (test): NCI tumour cell line growth inhibition, 48 h

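All cell lines were grown in 96-well plates and treated with compound for 48 hours. The concentration for 50% growth inhibition is given as GI50.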 The source made the active and inactive calls. Cut-off read from the data, not from the text of the source: active = GI50 up to about 1.1 µM and inactive = higher. A value given as a limit tells only on which side of the number the result lay.

On to `NCCCCC(NC(=O)C(N)Cc1ccc(O)cn1)C(=O)O` (centres undefined), for which the GI50 in the assay on CAKI-1, in the assay with CCRF-CEM, with HL-60, in the assay on HOP-62, in the assay with HOP-92 and in the assay with HT-29 was > 100 µM (inactive) throughout. The GI50 in the assay with MDA-N, with Malme-3M, in the assay with NCI-H460, in the assay with OVCAR-3, with OVCAR-5 and with OVCAR-8 was > 100 µM (inactive) in each case. The GI50 in the assay on SF-268, in the assay on SF-295, in the assay on SK-MEL-5, in the assay with SN12C, in the assay with SR and with TK-10 was > 100 µM (inactive) throughout. The GI50 in the assay on U-251 is > 100 µM (inactive).
Regarding `CC(=O)C1(C)CC(C#N)(C#N)C(C#N)=C1N` (centres undefined), the GI50 with CAKI-1 is 66.8 µM (inactive); in the assay with CCRF-CEM, > 100 µM (inactive); in the assay with HL-60, > 100 µM (inactive); in the assay on HOP-62, > 100 µM (inactive); in the assay with HOP-92, 21 µM (inactive); with HT-29, > 100 µM (inactive). In addition, the GI50 in the assay with M14, in the assay on MDA-N, with Malme-3M, with OVCAR-3, in the assay with OVCAR-5 and in the assay with OVCAR-8 was > 100 µM (inactive) in each case. Moreover, the GI50 was > 100 µM (inactive) in the assay on SF-268; > 100 µM (inactive) in the assay on SF-295; > 100 µM (inactive) with SK-MEL-5; > 100 µM (inactive) in the assay with SN12C; 56.2 µM (inactive) in the assay on SR; > 100 µM (inactive) in the assay with TK-10. The GI50 with U-251 was > 100 µM (inactive).
For `COCn1c(C)c(C)c2c(=O)oc(C)nc21`, the GI50 is 0.288 µM (active) in the assay on CAKI-1; > 100 µM (inactive) in the assay on CCRF-CEM; > 100 µM (inactive) in the assay on HL-60; 70.8 µM (inactive) in the assay with HOP-62; > 100 µM (inactive) with HOP-92; > 100 µM (inactive) with HT-29. Moreover, the GI50 in the assay with M14, in the assay with MDA-N, with Malme-3M, in the assay on NCI-H460, with OVCAR-5 and with OVCAR-8 was > 100 µM (inactive) throughout. Further, the GI50 with SF-268, in the assay on SF-295, with SK-MEL-5, with SN12C, with SR and in the assay with TK-10 was > 100 µM (inactive) each time. In addition, the GI50 in the assay on U-251 was > 100 µM (inactive).
With `C/C(=N\NC(=S)Nc1ccc(C)cc1)c1nc2cccnc2[nH]1`, the GI50 was 1.84 µM (inactive) in the assay with CAKI-1; 0.452 µM (active) in the assay with CCRF-CEM; 2.22 µM (inactive) in the assay with HL-60; 3.17 µM (inactive) in the assay on HOP-62; 6.38 µM (inactive) in the assay with HOP-92; 0.681 µM (active) in the assay on HT-29. The GI50 is 4.63 µM (inactive) with MDA-N; 4.86 µM (inactive) with Malme-3M; 1.32 µM (inactive) in the assay with NCI-H460; 0.483 µM (active) with OVCAR-3; 1.95 µM (inactive) in the assay on OVCAR-5; 3.05 µM (inactive) in the assay on OVCAR-8. For the same molecule, the GI50 with SF-268 was 0.587 µM (active); with SF-295, 3.07 µM (inactive); in the assay with SK-MEL-5, 1.76 µM (inactive); in the assay with SN12C, 2.32 µM (inactive); in the assay with SR, 0.849 µM (active); in the assay with TK-10 it was 2.67 µM (inactive). Also, in the assay with U-251, the GI50 is 1.45 µM (inactive).
In the case of `CCN1C(NCCO)=NS(=O)(=O)c2ccccc21`, the GI50 in the assay with CAKI-1, with CCRF-CEM, with HL-60, in the assay on HOP-62, in the assay with HOP-92 and in the assay with HT-29 was > 100 µM (inactive) throughout. Moreover, the GI50 with M14, with MDA-N, in the assay with NCI-H460, in the assay with OVCAR-3, in the assay on OVCAR-5 and in the assay with OVCAR-8 was > 100 µM (inactive) in each case. Besides, the GI50 with SF-268, with SF-295, in the assay on SK-MEL-5, with SN12C, with SR and in the assay with TK-10 was > 100 µM (inactive) each time. For the same molecule, in the assay with U-251, the GI50 is > 100 µM (inactive).
`COC(=O)c1ccc2c(c1)CC1(C2)Cc2ccc3c(c2C1)CCC3` (centres undefined): the GI50 in the assay with CAKI-1 was 0.0543 µM (active); with CCRF-CEM it was 19.3 µM (inactive); with HL-60 it was 14.8 µM (inactive); in the assay on HOP-62 it was 29.9 µM (inactive); in the assay on HOP-92 it was 0.855 µM (active); with HT-29, 17.5 µM (inactive). Also, the GI50 was 0.574 µM (active) in the assay on M14; 3.63 µM (inactive) in the assay on MDA-N; 17.4 µM (inactive) in the assay on Malme-3M; 80.2 µM (inactive) with OVCAR-3; > 100 µM (inactive) in the assay with OVCAR-5; 69.2 µM (inactive) with OVCAR-8. The GI50 is 93.8 µM (inactive) with SF-268; 24.9 µM (inactive) in the assay with SF-295; 14.3 µM (inactive) in the assay on SK-MEL-5; 18.6 µM (inactive) with SN12C; 20.8 µM (inactive) in the assay on SR; > 100 µM (inactive) in the assay with TK-10. The GI50 in the assay with U-251 is 28.7 µM (inactive).
In the case of `O=C1Nc2ccc(Br)cc2/C1=N/NC(=S)Nc1ccc(F)cc1`, the GI50 in the assay on CAKI-1 was 2.12 µM (inactive); in the assay with HL-60, 1.6 µM (inactive); in the assay on HOP-62 it was 8.07 µM (inactive); in the assay on HOP-92, 3.61 µM (inactive); in the assay with HT-29, 5.38 µM (inactive); with MDA-N it was 2.98 µM (inactive). The GI50 in the assay on Malme-3M is 4.95 µM (inactive); with NCI-H460 it was 1.59 µM (inactive); in the assay on OVCAR-3, 13.3 µM (inactive); with OVCAR-5, 43.2 µM (inactive); in the assay on OVCAR-8, 4.25 µM (inactive); in the assay on SF-268, 4.31 µM (inactive). The GI50 with SF-295 is 3.69 µM (inactive); in the assay on SK-MEL-5, 3.67 µM (inactive); in the assay on SN12C, 4.15 µM (inactive); in the assay on SR, 1.71 µM (inactive); in the assay on TK-10, 5.86 µM (inactive); with U-251 it was 3.53 µM (inactive).
As to `CCOc1ccc(C(=O)/C=C2/Nc3ccccc3N/C2=C/C(=O)c2ccc(OCC)cc2)cc1`, the GI50 is > 100 µM (inactive) with CAKI-1; 29.7 µM (inactive) in the assay with CCRF-CEM; > 100 µM (inactive) with HL-60; > 100 µM (inactive) in the assay with HOP-62; > 100 µM (inactive) in the assay with HOP-92; > 100 µM (inactive) in the assay on HT-29. In addition, the GI50 is > 100 µM (inactive) in the assay on M14; > 100 µM (inactive) in the assay with MDA-N; 41.7 µM (inactive) in the assay with Malme-3M; 85.3 µM (inactive) in the assay with NCI-H460; > 100 µM (inactive) in the assay with OVCAR-3; > 100 µM (inactive) in the assay with OVCAR-5. For the same molecule, the GI50 in the assay with SF-268 is > 100 µM (inactive); in the assay with SF-295 it was > 100 µM (inactive); with SK-MEL-5 it was > 100 µM (inactive); with SN12C it was > 100 µM (inactive); with SR it was 3.43 µM (inactive); in the assay on TK-10, > 100 µM (inactive). In addition, the GI50 in the assay on U-251 was > 100 µM (inactive).
In the case of `O=C1Nc2c(Cl)cc(Cl)cc2/C1=N/NC(=O)c1ccncc1`, the GI50 in the assay with CAKI-1 is 18.4 µM (inactive); with CCRF-CEM, 29.4 µM (inactive); with HL-60, 9.64 µM (inactive); with HOP-62 it was 25.8 µM (inactive); in the assay on HOP-92, 33.2 µM (inactive); in the assay on HT-29 it was 27.4 µM (inactive). For the same molecule, the GI50 in the assay on M14 is 46.2 µM (inactive); with MDA-N, 15.7 µM (inactive); with Malme-3M, 16.9 µM (inactive); with NCI-H460, 46.7 µM (inactive); in the assay with OVCAR-3, 15.5 µM (inactive); in the assay with OVCAR-5 it was 61 µM (inactive). Further, the GI50 is 20.6 µM (inactive) with OVCAR-8; 38.5 µM (inactive) in the assay on SF-295; 17.9 µM (inactive) in the assay on SK-MEL-5; 26.2 µM (inactive) with SN12C; 14.7 µM (inactive) in the assay on SR; 73.1 µM (inactive) in the assay on TK-10. For the same molecule, in the assay on U-251, the GI50 was 18.1 µM (inactive).
For `COC1CC(OC2C(C)OC(OC3C(C)OC(OC4C(O)CC(O[C@H]5CC[C@@]6(C)C(=CC[C@]7(O)[C@@H]6C[C@@H](OC(=O)/C=C/c6ccccc6)[C@@]6(C)[C@]7(O)CC[C@@]6(O)C(C)=O)C5)OC4C)CC3OC)CC2OC)OC(C)C1O` (some centres undefined), the GI50 in the assay with CAKI-1, with CCRF-CEM, with HL-60, with HOP-62, in the assay on HOP-92 and with HT-29 was > 6.25 µM (inactive) in each case. Further, the GI50 in the assay with M14, in the assay with MDA-N, with Malme-3M, in the assay on OVCAR-3, with OVCAR-5 and in the assay with OVCAR-8 was > 6.25 µM (inactive) in each case. In addition, the GI50 in the assay with SF-268, in the assay on SF-295, in the assay on SK-MEL-5, with SN12C, in the assay on SR and in the assay with TK-10 was > 6.25 µM (inactive) in each case. Moreover, in the assay on U-251, the GI50 was > 6.25 µM (inactive).
